In ChEMBL document CHEMBL3046672, “Synthesis and bioevaluation of Schiff and Mannich bases of isatin derivatives with 4-amino-5-benzyl-2,4-dihydro-3H-1,2,4-triazole-3-thione” (2012) one finds zone of inhibition data, which are given here for eight molecules.

What all share (format): functional
Common to all, as to conditions: read-out: DIZ

For test [1], the system named is Pseudomonas aeruginosa. The test can be described thus: Antibacterial activity against Pseudomonas aeruginosa at 50 ug/ml.
In test [2] the test system is Pseudomonas aeruginosa. The test can be described thus: Antibacterial activity against Pseudomonas aeruginosa at 100 ug/ml.
The test system of test [3] is Pseudomonas aeruginosa. The test can be described thus: Antibacterial activity against Pseudomonas aeruginosa at 200 ug/ml.
The subject of test [4] is Escherichia coli. In words: Antibacterial activity against Escherichia coli at 50 ug/ml.
For test [5], the system named is Escherichia coli. The test can be described thus: Antibacterial activity against Escherichia coli at 100 ug/ml.
The test system of test [6] is Escherichia coli. In words: Antibacterial activity against Escherichia coli at 200 ug/ml.
Test [7] has as its system Staphylococcus aureus. The test can be described thus: Antibacterial activity against Staphylococcus aureus at 200 ug/ml.
Test [8] has as its system Staphylococcus aureus. The test can be described thus: Antibacterial activity against Staphylococcus aureus at 100 ug/ml.
For test [9], the system named is Aspergillus niger. In words: Antifungal activity against Aspergillus niger at 200 ug/ml.
For test [10], the system named is Staphylococcus aureus. The test can be described thus: Antibacterial activity against Staphylococcus aureus at 50 ug/ml.
Test [11] deals with Bacillus subtilis. The test can be described thus: Antibacterial activity against Bacillus subtilis at 200 ug/ml.
Test [12] has as its system Bacillus subtilis. The test can be described thus: Antibacterial activity against Bacillus subtilis at 100 ug/ml.
Test [13] relates to Bacillus subtilis. In words: Antibacterial activity against Bacillus subtilis at 50 ug/ml.
Test [14] deals with Candida albicans. The test can be described thus: Antifungal activity against Candida albicans at 200 ug/ml.
The subject of test [15] is Candida albicans. The test can be described thus: Antifungal activity against Candida albicans at 100 ug/ml.
For test [16], the system named is Candida albicans. The test can be described thus: Antifungal activity against Candida albicans at 50 ug/ml.
For test [17], the system named is Aspergillus niger. The test can be described thus: Antifungal activity against Aspergillus niger at 100 ug/ml.

As to `O=C1/C(=N\n2c(Cc3ccccc3)n[nH]c2=S)c2cc(Cl)ccc2N1CN1CCCCC1`, the zone of inhibition at 50 µg/mL in the test with Pseudomonas aeruginosa [1] was determined as 10 mm; with Escherichia coli [4], 10 mm; with Staphylococcus aureus [10] it was 9 mm; with Bacillus subtilis [13], 9 mm; in the test with Candida albicans [16], 9 mm. For the same molecule, the zone of inhibition at 100 µg/mL came out at 15 mm in the test on Pseudomonas aeruginosa [2]; 16 mm in the test with Escherichia coli [5]; 12 mm in the test with Staphylococcus aureus [8]; 13 mm in the test on Bacillus subtilis [12]; 11 mm with Candida albicans [15]; 9 mm with Aspergillus niger [17]. Further, the zone of inhibition at 200 µg/mL with Pseudomonas aeruginosa [3] was 21 mm; in the test on Escherichia coli [6] it was 25 mm; in the test on Staphylococcus aureus [7] it was 20 mm; with Aspergillus niger [9], 15 mm; in the test with Bacillus subtilis [11], 22 mm; in the test with Candida albicans [14], 16 mm.

Take `CCN(CC)CN1C(=O)/C(=N\n2c(Cc3ccccc3)n[nH]c2=S)c2cc(Br)ccc21`: the zone of inhibition at 50 µg/mL was determined as 9 mm in the test on Pseudomonas aeruginosa [1], 10 mm in the test on Escherichia coli [4], 9 mm in the test with Staphylococcus aureus [10] and 9 mm in the test with Bacillus subtilis [13]. Also, the zone of inhibition at 100 µg/mL turned out to be 14 mm in the test on Pseudomonas aeruginosa [2]; 16 mm in the test with Escherichia coli [5]; 14 mm in the test with Staphylococcus aureus [8]; 13 mm with Bacillus subtilis [12]; 10 mm with Candida albicans [15]; 9 mm with Aspergillus niger [17]. For the same molecule, the zone of inhibition at 200 µg/mL is 23 mm in the test on Pseudomonas aeruginosa [3]; 26 mm in the test on Escherichia coli [6]; 20 mm in the test with Staphylococcus aureus [7]; 13 mm in the test with Aspergillus niger [9]; 20 mm in the test on Bacillus subtilis [11]; 16 mm in the test with Candida albicans [14].

Regarding `O=C1/C(=N\n2c(Cc3ccccc3)n[nH]c2=S)c2cc(Br)ccc2N1CN1CCCCC1`, the zone of inhibition at 50 µg/mL with Pseudomonas aeruginosa [1] worked out at 10 mm; with Escherichia coli [4], 10 mm; in the test on Staphylococcus aureus [10], 9 mm; in the test on Bacillus subtilis [13] it was 10 mm. Also, the zone of inhibition at 100 µg/mL with Pseudomonas aeruginosa [2] was found to be 15 mm; in the test on Escherichia coli [5], 16 mm; with Staphylococcus aureus [8] it was 14 mm; in the test with Bacillus subtilis [12], 15 mm; in the test with Candida albicans [15], 10 mm; with Aspergillus niger [17], 9 mm. The zone of inhibition at 200 µg/mL stood at 22 mm in the test on Pseudomonas aeruginosa [3]; 25 mm with Escherichia coli [6]; 21 mm in the test on Staphylococcus aureus [7]; 15 mm in the test on Aspergillus niger [9]; 20 mm in the test on Bacillus subtilis [11]; 16 mm with Candida albicans [14].

Take `O=C1/C(=N\n2c(Cc3ccccc3)n[nH]c2=S)c2ccccc2N1CN1CCOCC1`: the zone of inhibition at 50 µg/mL is 9 mm with Pseudomonas aeruginosa [1], 9 mm in the test with Escherichia coli [4], 10 mm in the test with Staphylococcus aureus [10] and 9 mm in the test with Bacillus subtilis [13]. In addition, the zone of inhibition at 100 µg/mL with Pseudomonas aeruginosa [2] turned out to be 12 mm; in the test on Escherichia coli [5], 15 mm; with Staphylococcus aureus [8], 15 mm; with Bacillus subtilis [12] it was 13 mm; in the test on Candida albicans [15], 10 mm; in the test on Aspergillus niger [17], 9 mm. Besides, the zone of inhibition at 200 µg/mL with Pseudomonas aeruginosa [3] is 22 mm; in the test with Escherichia coli [6], 23 mm; in the test on Staphylococcus aureus [7], 19 mm; in the test with Aspergillus niger [9], 12 mm; in the test on Bacillus subtilis [11], 20 mm; in the test on Candida albicans [14], 15 mm.

`CCN(CC)CN1C(=O)/C(=N\n2c(Cc3ccccc3)n[nH]c2=S)c2cc(Cl)ccc21`: the zone of inhibition at 50 µg/mL in the test on Pseudomonas aeruginosa [1] was determined as 9 mm; in the test with Escherichia coli [4], 11 mm; in the test with Staphylococcus aureus [10], 9 mm; in the test with Bacillus subtilis [13], 9 mm. Moreover, the zone of inhibition at 100 µg/mL in the test with Pseudomonas aeruginosa [2] stood at 16 mm; in the test on Escherichia coli [5] it was 17 mm; with Staphylococcus aureus [8] it was 12 mm; in the test on Bacillus subtilis [12] it was 14 mm; in the test on Candida albicans [15], 9 mm; in the test on Aspergillus niger [17], 9 mm. Also, the zone of inhibition at 200 µg/mL in the test with Pseudomonas aeruginosa [3] is 22 mm; with Escherichia coli [6], 27 mm; with Staphylococcus aureus [7] it was 21 mm; with Aspergillus niger [9], 12 mm; in the test with Bacillus subtilis [11], 20 mm; in the test with Candida albicans [14], 15 mm.

For `CCN(CC)CN1C(=O)/C(=N\n2c(Cc3ccccc3)n[nH]c2=S)c2ccccc21`, the zone of inhibition at 50 µg/mL came out at 9 mm in the test on Pseudomonas aeruginosa [1], 9 mm with Escherichia coli [4], 11 mm with Staphylococcus aureus [10] and 9 mm in the test on Bacillus subtilis [13]. The zone of inhibition at 100 µg/mL came out at 13 mm in the test with Pseudomonas aeruginosa [2]; 15 mm in the test on Escherichia coli [5]; 16 mm in the test on Staphylococcus aureus [8]; 13 mm in the test on Bacillus subtilis [12]; 10 mm in the test with Candida albicans [15]; 9 mm in the test on Aspergillus niger [17]. Also, the zone of inhibition at 200 µg/mL is 20 mm in the test with Pseudomonas aeruginosa [3]; 22 mm in the test on Escherichia coli [6]; 23 mm in the test with Staphylococcus aureus [7]; 13 mm in the test on Aspergillus niger [9]; 20 mm in the test on Bacillus subtilis [11]; 17 mm with Candida albicans [14].

As to `O=C1/C(=N\n2c(Cc3ccccc3)n[nH]c2=S)c2cc(Cl)ccc2N1CN1CCOCC1`, the zone of inhibition at 50 µg/mL in the test with Pseudomonas aeruginosa [1] came out at 9 mm; with Escherichia coli [4], 11 mm; in the test with Staphylococcus aureus [10], 9 mm; in the test with Bacillus subtilis [13] it was 9 mm. Further, the zone of inhibition at 100 µg/mL in the test on Pseudomonas aeruginosa [2] came out at 15 mm; with Escherichia coli [5], 16 mm; in the test with Staphylococcus aureus [8] it was 14 mm; in the test on Bacillus subtilis [12] it was 13 mm; in the test with Candida albicans [15], 10 mm; in the test with Aspergillus niger [17], 9 mm. Also, the zone of inhibition at 200 µg/mL with Pseudomonas aeruginosa [3] was 25 mm; with Escherichia coli [6], 25 mm; with Staphylococcus aureus [7], 20 mm; in the test with Aspergillus niger [9], 17 mm; with Bacillus subtilis [11], 22 mm; in the test on Candida albicans [14] it was 17 mm.

Consider `O=C1/C(=N\n2c(Cc3ccccc3)n[nH]c2=S)c2ccccc2N1CN1CCCCC1`, for which the zone of inhibition at 50 µg/mL came to 10 mm with Pseudomonas aeruginosa [1], 11 mm with Escherichia coli [4], 9 mm in the test with Staphylococcus aureus [10] and 9 mm with Bacillus subtilis [13]. The zone of inhibition at 100 µg/mL in the test on Pseudomonas aeruginosa [2] was found to be 16 mm; in the test with Escherichia coli [5], 18 mm; with Staphylococcus aureus [8], 14 mm; in the test with Bacillus subtilis [12] it was 12 mm; in the test with Candida albicans [15] it was 10 mm; with Aspergillus niger [17], 9 mm. In addition, the zone of inhibition at 200 µg/mL turned out to be 20 mm with Pseudomonas aeruginosa [3]; 23 mm in the test with Escherichia coli [6]; 20 mm in the test with Staphylococcus aureus [7]; 13 mm in the test with Aspergillus niger [9]; 20 mm in the test with Bacillus subtilis [11]; 16 mm with Candida albicans [14].
